# Reference: patent publication US11667602B2, “Compounds and their use” (AstraZeneca AB, priority 2020, dated 2023)
# Key:
# [1] = Human Liver Microsomal Stability (Test C); type: in vitro ADME; settings: human, liver microsomes
# Procedure, shortened: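 CLint (μl/min/mg protein) derived from compound depletion in human liver microsomes following a published standardized early-DMPK protocol; replicate determinations given as arithmetic mean.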
# [2] = Human Plasma Protein Binding (Test B); type: in vitro ADME; settings: fraction unbound (fu)
# Procedure, shortened: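 Values given as % free (fu) in human plasma, using the method of Wernevik et al. (2020). For compounds tested more than once, the arithmetic mean is given.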
# [3] = molecular target: T1, human RXFP1 (Homo sapiens, UniProt Q9HBX9); assay: RXFP1 Hu cAMP (Test A); type: cell-based; parameters: expressed in transfected cells; host or cells: Jump-In T-REx CHO-K1 cells (ThermoFisher), induced with 10 ng/ml doxycycline for 24 h; settings: RXFP1 Hu cAMP; for EC50: read-out: Test A EC50
# T1 sequence (Q9HBX9 1-757): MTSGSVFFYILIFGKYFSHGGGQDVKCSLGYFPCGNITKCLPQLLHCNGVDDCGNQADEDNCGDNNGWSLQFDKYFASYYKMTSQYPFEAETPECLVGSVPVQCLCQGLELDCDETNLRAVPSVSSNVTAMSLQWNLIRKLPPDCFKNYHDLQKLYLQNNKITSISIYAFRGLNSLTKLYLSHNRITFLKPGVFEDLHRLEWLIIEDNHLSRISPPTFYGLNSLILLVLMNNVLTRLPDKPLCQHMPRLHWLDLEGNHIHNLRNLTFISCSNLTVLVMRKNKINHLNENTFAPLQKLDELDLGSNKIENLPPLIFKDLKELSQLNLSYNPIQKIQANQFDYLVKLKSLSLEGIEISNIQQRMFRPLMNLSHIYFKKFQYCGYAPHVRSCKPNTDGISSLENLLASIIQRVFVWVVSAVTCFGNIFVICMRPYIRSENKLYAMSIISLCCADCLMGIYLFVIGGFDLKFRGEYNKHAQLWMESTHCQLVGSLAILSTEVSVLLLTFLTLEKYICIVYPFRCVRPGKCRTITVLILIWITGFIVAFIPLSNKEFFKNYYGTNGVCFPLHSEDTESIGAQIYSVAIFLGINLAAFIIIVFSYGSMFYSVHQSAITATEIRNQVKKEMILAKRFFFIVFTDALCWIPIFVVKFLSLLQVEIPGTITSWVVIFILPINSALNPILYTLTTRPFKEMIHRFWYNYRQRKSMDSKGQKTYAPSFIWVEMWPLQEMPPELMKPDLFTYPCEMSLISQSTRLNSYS
# Procedure, shortened: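 Cells: CHO-K1 stably carrying human RXFP1, expressed after 24 h 10 ng/ml doxycycline; 0.5 mM IBMX final, HTRF detection after 2 h at room temperature.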
# [4] = Rat Hepatocyte Stability (Test E); type: in vitro ADME; settings: rat, hepatocytes, geometric mean if run multiple times
# Procedure, shortened: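 Intrinsic clearance in rat hepatocytes, expressed as μl/min/10^6 cells, following the literature integrated DMPK panel method. Repeat determinations combined as geometric mean.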
# [5] = Human Hepatocyte Stability (Test D); type: in vitro ADME; settings: human, cryopreserved pooled human hepatocytes (LiverPool 10-Donor), geometric mean if run multiple times
# Procedure, shortened: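 Intrinsic clearance (μL/min/10^6 cells), derived as kV/N from the log-linear loss of parent compound. Compound incubated at 37 °C with cryopreserved pooled human hepatocytes, 0.25×10^6 cells in 0.25 mL L-15; dosing solution 100 μM in acetonitrile. Singlicate incubations, cassette LC-MS; repeats reported as geometric mean.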
# [6] = Solubility (Test F); type: physicochemical; settings: arithmetic mean if run multiple times
# Protocol: The assay was conducted according to the Solubility Assay described in pages 164-167 of Wernevik, J. et al., “A Fully Integrated Assay Panel for Early Drug Metabolism and Pharmacokinetics Profiling”, Assay and Drug Development Technologies, 2020, 18(4), 157-179. Data are reported in Table 36 as solubility ([…]. Where the assay was run multiple times for the same compound, the arithmetic mean is reported.
Compound,microsomal CLint [1] [µL/min/mg],Test B Human Plasma Protein Binding (% free) [2] [% free],Test A Sinf [3] [%],EC50 [3] [nM],hepatocyte CLint [4] [µL/min/1e6 cells],hepatocyte CLint at 1 µM [5] [µL/min/1e6 cells],solubility [6] [µM]
COc1cc(C#N)c(O[C@H]2CC[C@@](C)(C(=O)O)CC2)cc1C(=O)N[C@@H]1[C@H]2CC[C@H](C2)[C@@H]1C(=O)NC1(C)CCC1 [Example 90],< 3,14,111,140,18,< 1,800
COc1cc(C#N)c(O[C@H]2CC[C@@](C)(C(=O)O)CC2)cc1C(=O)N[C@@H]1[C@H]2CC[C@H](C2)[C@@H]1C(=O)NC(C)(C)CF [Example 77],4,21,108,,12,3.7,650
"COc1cc(F)c(O[C@H]2CC[C@@H](C(=O)O)CC2)cc1C(=O)N[C@@H]1[C@H]2CC[C@H](C2)[C@@H]1C(=O)Nc1ccc(F)c(C(F)(F)F)c1 [Example 179, (1S,4s)-4-(2-Fluoro-5-(((1S,2R,3S,4R)-3-((4-fluoro-3-(trifluoromethyl)phenyl)carbamoyl)bicyclo[2.2.1]heptan-2-yl)carbamoyl)-4-methoxyphenoxy)cyclohexane-1-carboxylic acid]",42,1,106,16,32,13,> 800

# Further compounds by falling EC50 [3], results first:
microsomal CLint [1] [µL/min/mg],Test B Human Plasma Protein Binding (% free) [2] [% free],Test A Sinf [3] [%],EC50 [3] [nM],hepatocyte CLint [4] [µL/min/1e6 cells],hepatocyte CLint at 1 µM [5] [µL/min/1e6 cells],solubility [6] [µM],Compound
16,0.18,98,180,8,4,6.5,"COc1cc(F)c(O[C@H]2CC[C@@H](C(=O)O)CC2)cc1C(=O)NC1=C(C(=O)Nc2ccc(F)c(C(F)(F)F)c2)CCCC1 [Example 213, (1s,4s)-4-(2-Fluoro-5-((2-((4-fluoro-3-(trifluoromethyl)phenyl)carbamoyl)cyclohex-1-en-1-yl)carbamoyl)-4-methoxyphenoxy)cyclohexane-1-carboxylic acid]"
65,1.7,106,120,35,30,> 1000,"COc1cc(F)c(-c2ccc(CCC(=O)O)nc2)cc1C(=O)N[C@@H]1[C@H]2CC[C@H](C2)[C@@H]1C(=O)Nc1cccc(S(=O)(=O)C(F)(F)F)c1 [Example 258, 3-(5-(2-Fluoro-4-methoxy-5-(((1S,2R,3S,4R)-3-((3-((trifluoromethyl)sulfonyl)phenyl)carbamoyl)bicyclo[2.2.1]heptan-2-yl)carbamoyl)phenyl)pyridin-2-yl)propanoic acid]"
110,6.7,105,110,14,13,10,COc1cc(F)c(O[C@H]2CC[C@@](C)(C(=O)O)CC2)cc1C(=O)N[C@@H]1[C@H]2CC[C@H](C2)[C@@H]1C(=O)N[C@@H]1CCCN(S(=O)(=O)C(F)(F)F)C1 [Example 604]
32,2.1,114,37,19,8,430,COc1cc(F)c(O[C@H]2CC[C@@](C)(C(=O)O)CC2)cc1C(=O)N[C@@H]1CCC[C@]1(F)C(=O)Nc1cccc(S(=O)(=O)C(F)(F)F)c1 [Example 355]
12,<0.070,108,0.49,7.5,5.7,460,"COc1cc(F)c(O[C@H]2CC[C@@](C)(C(=O)O)CC2)cc1C(=O)NC1C2CCC(C2)C1C(=O)Nc1ccc(F)c(S(F)(F)(F)(F)F)c1 (single isomer, unassigned) [Example 520, (1R,4s)-4-(2-Fluoro-5-(((1S*,2S*,3R*,4R*)-3-((4-fluoro-3-(pentafluoro-λ6-sulfaneyl)phenyl)carbamoyl)bicyclo[2.2.1]heptan-2-yl)carbamoyl)-4-methoxyphenoxy)-1-methylcyclohexane-1-carboxylic acid]"
